Laboratory results from patent US20100222396A1 (Novartis AG, priority 2009, published 2010).

Legend:
[1] = target: T1, human orexin 2 receptor (hOx2R) (Homo sapiens, UniProt O43614); assay: Radioligand binding assay ([125I]orexin A competition), hOx2R; conditions: CHO or HEK cell membranes, 1 h room temperature
T1 construct: expressed in transfected cells
T1 sequence (O43614 1-444): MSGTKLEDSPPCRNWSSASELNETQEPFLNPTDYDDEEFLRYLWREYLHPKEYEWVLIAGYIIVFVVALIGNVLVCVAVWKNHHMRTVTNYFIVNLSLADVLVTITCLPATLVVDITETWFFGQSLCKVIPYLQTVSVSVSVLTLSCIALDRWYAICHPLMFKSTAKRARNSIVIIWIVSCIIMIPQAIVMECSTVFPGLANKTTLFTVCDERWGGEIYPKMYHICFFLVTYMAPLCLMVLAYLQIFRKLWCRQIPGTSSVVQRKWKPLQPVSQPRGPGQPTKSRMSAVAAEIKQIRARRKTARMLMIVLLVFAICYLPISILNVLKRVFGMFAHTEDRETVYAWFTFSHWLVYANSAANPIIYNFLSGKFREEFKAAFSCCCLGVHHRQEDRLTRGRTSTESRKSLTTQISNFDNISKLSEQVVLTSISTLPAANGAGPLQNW
Method in brief: (§1)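 Membranes from CHO or HEK cells expressing the human receptor, incubated 1 h at room temperature with […] [125I]orexin A and compound in HEPES pH 7.5 buffer with BSA, MgCl2, CaCl2 and tween.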

[2] = target: T2, human orexin 1 receptor (hOx1R) (Homo sapiens, UniProt O43613); assay: Calcium accumulation in cells (FLIPR), antagonism of orexin A, hOx1R; format: cell-based; conditions: for Kd: cells expressing human orexin 1 receptor, IC50 vs orexin A converted by Cheng and Prusoff correction
T2 construct: expressed in transfected cells
T2 sequence (O43613 1-425): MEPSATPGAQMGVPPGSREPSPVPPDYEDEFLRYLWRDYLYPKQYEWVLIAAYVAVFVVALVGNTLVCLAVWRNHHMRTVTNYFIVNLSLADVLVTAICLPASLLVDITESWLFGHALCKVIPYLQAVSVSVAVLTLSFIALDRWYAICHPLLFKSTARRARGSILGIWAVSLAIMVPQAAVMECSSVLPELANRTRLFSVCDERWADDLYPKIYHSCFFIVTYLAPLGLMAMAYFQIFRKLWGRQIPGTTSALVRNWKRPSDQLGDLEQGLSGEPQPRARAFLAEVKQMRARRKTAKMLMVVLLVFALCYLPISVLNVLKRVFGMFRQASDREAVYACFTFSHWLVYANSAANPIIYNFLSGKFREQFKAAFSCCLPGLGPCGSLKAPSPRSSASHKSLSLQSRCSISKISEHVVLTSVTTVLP
Method in brief: (§2)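 Serum-starved receptor-expressing cells were loaded with Fluo-4-AM (2 μM) plus probenecid (0.1 mM) in HEPES buffer, pH 7.4, with 1% BSA, and Ca2+ fluorescence was read on FLIPR. Compounds (10^−9–10^−5 M) were added first, and orexin A was added one hour later to measure antagonism.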

[3] = target: T1, human orexin 2 receptor (hOx2R); assay: Calcium accumulation in cells (FLIPR), antagonism of orexin A, hOx2R; format: cell-based; conditions: for Kd: cells expressing human orexin 2 receptor, IC50 vs orexin A converted by Cheng and Prusoff correction
Method in brief: as §2

[4] = target: T2, human orexin 1 receptor (hOx1R); assay: Radioligand binding assay ([125I]orexin A competition), hOx1R; conditions: CHO or HEK cell membranes, 1 h room temperature
Method in brief: as §1

[5] = measured at a concentration of 10 μM of compound (cells marked ^a)

| SMILES | Kd [1] | Kd [2] | Kd [3] | Kd [4] | inhibition at 10 µM [2, 5] | inhibition at 10 µM [3, 5] |
| --- | --- | --- | --- | --- | --- | --- |
| CN(C(=O)c1ccc2cc[nH]c2c1)[C@H](CCNC(=O)c1ccccn1)Cc1ccccc1 [Example 64, 1H-Indole-6-carboxylic acid {(S)-1-benzyl-3-[(pyridine-2-carbonyl)-amino]-propyl}-methyl-amide] | 6860 nM | 1010 nM | 1070 nM | 540 nM | – | – |
| CCCN(C(=O)c1cc(C(F)(F)F)cc(C(F)(F)F)c1)[C@H](CCNC(=O)c1ccccn1)Cc1ccccc1 [Example 22, Pyridine-2-carboxylic acid {(S)-3-[(3,5-bis-trifluoromethyl-benzoyl)-propyl-amino]-4-phenyl-butyl}-amide] | 214 nM | 1570 nM | 105 nM | > 10000 nM | – | – |
| CN(C(=O)c1ccc2ccccc2c1)[C@H](CCNC(=O)c1nc2ccccc2n1C)Cc1ccc(F)cc1 [Example 57, 1-Methyl-1H-benzoimidazole-2-carboxylic acid {(S)-4-(4-fluoro-phenyl)-3-[methyl-(naphthalene-2-carbonyl)-amino]-butyl}-amide] | 2850 nM | 12 nM | 26 nM | 443 nM | – | – |
| CCCOc1cccc(C(=O)N(C)[C@H](CCNC(=O)c2cccn2C)Cc2ccccc2)c1 [Example 126] | 87 nM | 2100 nM | 56 nM | 2480 nM | – | – |
| CN(C(=O)c1cccc(OC(F)(F)F)c1)[C@H](CCNC(=O)c1cccn1C)Cc1ccccc1 [Example 123, 1-Methyl-1H-pyrrole-2-carboxylic acid {(S)-3-[methyl-(3-trifluoromethoxy-benzoyl)-amino]-4-phenyl-butyl}-amide] | 30 nM | 865 nM | 7 nM | 1580 nM | – | – |
| CN(C(=O)c1cc(F)cc(F)c1)[C@H](CCNC(=O)c1ccccn1)Cc1ccccc1 [Example 34, Pyridine-2-carboxylic acid {(S)-3-[(3,5-difluoro-benzoyl)-methyl-amino]-4-phenyl-butyl}-amide] | 466 nM | 731 nM | 558 nM | 253 nM | – | – |
| CN(C(=O)c1cccc2c1OCO2)[C@H](CCNC(=O)c1nc2ccccc2n1C)Cc1ccc(F)cc1 [Example 56, 1-Methyl-1H-benzoimidazole-2-carboxylic acid [(S)-3-[(benzo[1,3]dioxole-4-carbonyl)-methyl-amino]-4-(4-fluoro-phenyl)-butyl]-amide] | 2720 nM | – | – | > 10000 nM | 1% | 35% |
